Test results as given in DBAASP.
≈ marks a conversion by molar mass, not a printed value. Where “and” joins values, the source holds several entries; their conditions need not be identical. Identical values can stand only once. One block for each compound: values may come before it.

Key:
Assay in all cases: ≥ marks a high value that may be exact or a test limit, other limits are often not marked, values filed in µg/mL are converted to µM
[1] = tested on: Stenotrophomonas maltophilia ATCC 13637
[2] = tested on: Escherichia coli ATCC 25922
[3] = tested on: Proteus mirabilis
[4] = tested on: Staphylococcus epidermidis
[5] = tested on: Micrococcus luteus ATCC 10240
[6] = tested on: Staphylococcus aureus ATCC 25923
[7] = tested on: Bacillus subtilis ATCC 6633
[8] = tested on: Candida albicans ATCC 90112
[9] = tested on: Pseudomonas aeruginosa ATCC 27853
[10] = tested on: Streptococcus pyogenes
[11] = tested on: Rhizoctonia solani
[12] = tested on: Escherichia coli
[13] = tested on: Candida albicans ATCC 1023
[14] = tested on: Pseudomonas syringae pv. tabaci
[15] = tested on: Ramulariopsis gossypii
[16] = tested on: Candida tropicalis
[17] = tested on: Fusarium oxysporum
[18] = tested on: Xanthomonas axonopodis pv. glycines ISBF 327
[19] = tested on: Bacillus subtilis ATCC 23857
[20] = tested on: Candida albicans ATCC 90028
[21] = tested on: Acinetobacter calcoaceticus
[22] = tested on: Bacillus cereus ATCC 14579
[23] = tested on: Staphylococcus aureus ATCC 29313
[24] = tested on: Fusarium solani
[25] = tested on: Candida albicans
[26] = tested on: Streptococcus dysgalactiae
[27] = tested on: Streptococcus uberis
[28] = tested on: Cryptococcus neoformans ATCC 28957
[29] = tested on: Trichoderma asperellum
[30] = tested on: Pectobacterium carotovorum
[31] = tested on: Xanthomonas campestris pv. citri
[32] = tested on: Staphylococcus aureus
[33] = tested on: Pseudomonas aeruginosa KCTC 1637
[34] = tested on: Staphylococcus aureus CCARM 3001
[35] = tested on: Staphylococcus aureus CCARM 3543
[36] = tested on: Acinetobacter baumannii ATCC 17978
[37] = tested on: Escherichia coli NCTC 12923
[38] = tested on: Pseudomonas aeruginosa NCTC 13437
[39] = tested on: Klebsiella pneumoniae NCTC 13368
[40] = tested on: Staphylococcus epidermidis KCTC 1917
[41] = tested on: Staphylococcus aureus KCTC 1621
[42] = tested on: Staphylococcus aureus ATCC 9144
[43] = tested on: Pseudomonas aeruginosa PAO1
[44] = tested on: Pseudomonas aeruginosa CCARM 2095
[45] = tested on: Staphylococcus aureus USA 300
[46] = tested on: Escherichia coli KCTC 1682
[47] = tested on: Salmonella typhimurium KCTC 1926
[48] = tested on: Staphylococcus aureus ATCC 6538
[49] = tested on: Micrococcus luteus ATCC 9341
[50] = tested on: Candida albicans ATCC 36232
[51] = tested on: Spiroplasma citri R8A2
[52] = tested on: Spiroplasma melliferum BC3
[53] = tested on: Acholeplasma laidlawii A-EF22
[54] = tested on: Spiroplasma floricola BNR 1
[55] = tested on: Mycoplasma mycoides ssp. mycoides SC KH3J

Structure (SMILES): CC[C@H](C)[C@H](NC(=O)CNC(=O)[C@H](CCSC)NC(=O)[C@@H](NC(=O)[C@H](CC(=O)O)NC(=O)[C@@H](N)Cc1ccccc1)C(C)C)C(=O)N[C@H](C(=O)N[C@@H](CCCCN)C(=O)N[C@@H](CCCCN)C(=O)N[C@H](C(=O)N[C@@H](C)C(=O)N[C@@H](CO)C(=O)N[C@@H](C)C(=O)N[C@@H](CC(C)C)C(N)=O)[C@@H](C)CC)[C@@H](C)CC [FDVMGIIKKIASAL]
MIC [1]: 30 µM (≈ 45.1 µg/mL)
MIC [2]: 30 µM (≈ 45.1 µg/mL)
MIC [3]: ≥ 60 µM
MIC [4]: 30 µM (≈ 45.1 µg/mL)
MIC [5]: 30 µM (≈ 45.1 µg/mL)
MIC [6]: 30 µM (≈ 45.1 µg/mL)
MIC [7]: 30 µM (≈ 45.1 µg/mL)
MIC [8]: 7.5 µM (≈ 11.3 µg/mL)
MIC [9]: > 30 µM
MIC [10]: 30 µM (≈ 45.1 µg/mL)

Structure (SMILES): CC[C@H](C)[C@H](N)C(=O)N[C@@H](CC(C)C)C(=O)NCC(=O)N[C@@H](CCCCN)C(=O)N[C@H](C(=O)N[C@@H](Cc1c[nH]c2ccccc12)C(=O)N[C@@H](CCCCN)C(=O)N1CCC[C@H]1C(=O)N[C@H](C(=O)N[C@@H](CCCCN)C(=O)N[C@@H](CCCCN)C(=O)N[C@@H](CC(C)C)C(=O)N[C@@H](Cc1ccccc1)C(N)=O)[C@@H](C)CC)[C@@H](C)CC [ILGKIWKPIKKLF]
MIC [33]: 2 µM (≈ 3.17 µg/mL)
MIC [34]: 1 µM (≈ 1.58 µg/mL)
MIC [35]: 0.5 µM (≈ 0.792 µg/mL)
MIC [36]: 5.05 µM (≈ 8 µg/mL)
MIC [37]: 10.1 µM (≈ 16 µg/mL)
MIC [38]: ≥ 40.4 µM
MIC [39]: ≥ 40.4 µM
MIC [40]: 1 µM (≈ 1.58 µg/mL)
MIC [41]: 2 µM (≈ 3.17 µg/mL)
MIC [42]: 5.05 µM (≈ 8 µg/mL)
MIC [43]: > 80.8 µM
MIC [44]: 1 µM (≈ 1.58 µg/mL)
MIC [45]: ≥ 40.4 µM
MIC [46]: 2 µM (≈ 3.17 µg/mL)
MIC [47]: 1 µM (≈ 1.58 µg/mL)

Second part, led by results:

MIC [11]: ≥ 64 µM
MIC [12]: 6.42 µM (≈ 17.9 µg/mL)
MIC [13]: 5.7 µM (≈ 15.9 µg/mL)
MIC [14]: 1 µM (≈ 2.79 µg/mL)
MIC [15]: 8 µM (≈ 22.4 µg/mL)
MIC [6]: 3.2 µM and 8 µM
MIC [16]: 0.37 µM (≈ 1.03 µg/mL)
MIC [17]: 16 µM (≈ 44.7 µg/mL)
MIC [18]: 1 µM (≈ 2.79 µg/mL)
MIC [19]: 1 µM (≈ 2.79 µg/mL)
MIC [20]: 4 µM (≈ 11.2 µg/mL)
MIC [21]: 25.7 µM (≈ 71.7 µg/mL)
MIC [22]: 16 µM (≈ 44.7 µg/mL)
MIC [24]: 16 µM (≈ 44.7 µg/mL)
MIC [25]: 5.7 µM (≈ 15.9 µg/mL)
MIC [26]: 5.7 µM (≈ 15.9 µg/mL)
MIC [27]: 5.7 µM (≈ 15.9 µg/mL)
MIC [28]: 8 µM (≈ 22.4 µg/mL)
MIC [29]: 8 µM (≈ 22.4 µg/mL)
MIC [30]: 0.5 µM (≈ 1.4 µg/mL)
MIC [31]: 0.5 µM (≈ 1.4 µg/mL)
MIC [32]: 12.8 µM and 5.7 µM
Structure (SMILES): CC[C@H](C)[C@H](NC(=O)[C@H](C)NC(=O)[C@H](C)NC(=O)[C@H](CCC(=O)O)NC(=O)[C@H](CCCCN)NC(=O)CNC(=O)[C@H](CCCCN)NC(=O)[C@H](CCC(N)=O)NC(=O)[C@H](CCCCN)NC(=O)[C@@H](NC(=O)[C@@H](NC(=O)[C@H](CO)NC(=O)[C@H](Cc1c[nH]c2ccccc12)NC(=O)[C@H](CC(C)C)NC(=O)CN)[C@@H](C)O)[C@@H](C)CC)C(=O)N[C@@H](C)C(=O)N[C@@H](C)C(=O)N[C@@H](C)C(=O)N[C@@H](CCCCN)C(=O)N[C@@H](C)C(=O)N[C@@H](C)C(=O)NCC(=O)N[C@@H](CCC(N)=O)C(=O)N[C@@H](C)C(=O)N[C@@H](C)C(=O)N[C@@H](CC(C)C)C(=O)NCC(=O)N[C@@H](C)C(=O)N[C@@H](CC(C)C)C(N)=O [GLWSTIKQKGKEAAIAAAKAAGQAALGAL]
MIC [23]: 11 µM (≈ 30.7 µg/mL)

MIC [48]: 2.08 µM (≈ 3.13 µg/mL)
MIC [49]: 2.08 µM (≈ 3.13 µg/mL)
MIC [50]: 4.15 µM and 2.08 µM
Structure (SMILES): CC(C)[C@H](NC(=O)[C@H](CCCCN)NC(=O)[C@H](Cc1ccccc1)NC(=O)[C@@H](NC(=O)[C@@H](NC(=O)[C@H](CCCCN)NC(=O)[C@H](CCCCN)NC(=O)[C@@H](N)CCCCN)C(C)C)C(C)C)C(=O)N[C@@H](CCCCN)C(=O)N[C@@H](Cc1ccccc1)C(=O)N[C@@H](CCCCN)C(=O)N[C@@H](CCCCN)C(N)=O [KKKVVFKVKFKK]

MIC [51]: 6.25 µM (≈ 11.6 µg/mL)
MIC [52]: 6.25 µM (≈ 11.6 µg/mL)
MIC [53]: 1.56 µM (≈ 2.91 µg/mL)
MIC [54]: 6.25 µM (≈ 11.6 µg/mL)
MIC [55]: 6.25 µM (≈ 11.6 µg/mL)
Structure (SMILES): CC(C)C[C@H](NC(=O)[C@H](CCCCN)NC(=O)[C@H](CC(C)C)NC(=O)[C@H](CC(C)C)NC(=O)[C@H](CC(C)C)NC(=O)[C@H](CCCCN)NC(=O)[C@H](CC(C)C)NC(=O)[C@H](CC(C)C)NC(=O)[C@H](CC(C)C)NC(=O)[C@H](CCCCN)NC(=O)[C@H](CC(C)C)NC(=O)[C@H](CC(C)C)NC(=O)[C@@H](N)CCCCN)C(=O)N[C@@H](Cc1c[nH]c2ccccc12)C(=O)N[C@@H](CCCCN)C(=O)O [KLLKLLLKLLLKLWK]
